Data taken from ChEMBL document CHEMBL1133922, “Evolution of anti-HIV drug candidates. Part 2: Diaryltriazine (DATA) analogues” (Bioorg Med Chem Lett, 2001).
pIC50: −log10 of the molar value.

Assays:
[1] = system: Human immunodeficiency virus 1; assay: Inhibitory activity against 181C strain of HIV-I in MT-4 cell was determined; type: functional, organism-based; settings: Human immunodeficiency virus 1, MT4
[2] = system: Human immunodeficiency virus 1; assay: Inhibitory activity against 103N strain of HIV-I in MT-4 cell was determined; type: functional, organism-based; settings: Human immunodeficiency virus 1, MT4
[3] = system: Human immunodeficiency virus 1; assay: Inhibitory activity against LAI strain of HIV-I in MT-4 cell was determined; type: functional, organism-based; settings: Human immunodeficiency virus 1, MT4
[4] = system: Human immunodeficiency virus 1; assay: Inhibitory activity against 188L strain of HIV-1 in MT-4 cell was determined; type: functional, organism-based; settings: Human immunodeficiency virus 1, MT4
MT4 [5] = assay: Inhibitory activity against 103N strain and 181C strain of HIV-I in MT-4 cell was determined; type: functional, cell-based; settings: Homo sapiens
[6] = system: Human immunodeficiency virus 1; assay: Inhibitory activity against 100I strain of HIV-I in MT-4 cell was determined; type: functional, organism-based; settings: Human immunodeficiency virus 1, MT4
MT4 [7] = assay: Inhibitory activity against 100I strain and 103N strain of HIV-I in MT-4 cell was determined; type: functional, cell-based; settings: Homo sapiens
MT4 [8] = assay: Inhibitory activity against LAI strain of HIV-I in MT-4 cell was determined; Not determined; type: functional, cell-based; settings: Homo sapiens

| SMILES | pIC50 [1] | pIC50 [2] | pIC50 [3] | pIC50 [4] | pIC50 [6] | pIC50 (MT4 [5]) | pIC50 (MT4 [7]) | pIC50 (MT4 [8]) |
| --- | --- | --- | --- | --- | --- | --- | --- | --- |
| N#Cc1ccc(Nc2nc(O)nc(Cc3c(Cl)cccc3Cl)n2)cc1 | 5.67 | 6.22 | 6.80 | – | – | – | – | – |
| CSc1nc(Cc2c(Cl)cccc2Cl)nc(Nc2ccc(C#N)cc2)n1 | 5.63 | 6.47 | 7.74 | – | – | – | – | – |
| N#Cc1ccc(Nc2nc(N)nc(Oc3c(Cl)cc(F)cc3Cl)n2)cc1 | 6.59 | 7.19 | 8.14 | 5.99 | 6.15 | – | – | – |
| N#Cc1ccc(Nc2nc(N)nc(Cc3ccc(Cl)cc3Cl)n2)cc1 | 6.10 | 6.56 | 7.85 | 5.63 | 5.68 | – | – | – |
| CN(C)/C=N\c1nc(Cc2c(Cl)cccc2Cl)nc(Nc2ccc(C#N)cc2)n1 | 6.50 | 7.80 | 8.60 | 6.60 | 6.20 | – | – | – |
| COc1nc(Cc2c(Cl)cccc2Cl)nc(Nc2ccc(C#N)cc2)n1 | 5.84 | 6.64 | 7.92 | 5.81 | 5.94 | – | – | – |
| N#Cc1ccc(Nc2nc(N)nc(Oc3c(Cl)cc(Cl)cc3Cl)n2)cc1 | 7.21 | 7.92 | 8.62 | 6.30 | 7.06 | – | – | – |
| CNc1nc(Cc2c(Cl)cccc2Cl)nc(Nc2ccc(C#N)cc2)n1 | 6.36 | 6.86 | 8.15 | 5.99 | 5.94 | – | – | – |
| CCCONc1nc(Cc2c(Cl)cccc2Cl)nc(Nc2ccc(C#N)cc2)n1 | – | – | – | – | – | – | – | 4.00 |
| N#Cc1ccc(Nc2nc(N)nc(Oc3c(F)cc(F)cc3F)n2)cc1 | 5.44 | 7.06 | 7.29 | 5.05 | 6.67 | – | – | – |
| CC(=O)Nc1nc(Cc2c(Cl)cccc2Cl)nc(Nc2ccc(C#N)cc2)n1 | 4.00 | 7.40 | 7.80 | 6.80 | 4.00 | – | – | – |
| Cc1cc(C)c(Cc2nc(N)nc(Nc3ccc(C#N)cc3)n2)c(C)c1 | 7.82 | 8.52 | 9.10 | 7.35 | 7.09 | – | – | – |
| N#Cc1ccc(Nc2nc(N)nc(Cc3c(Cl)cc(Cl)cc3Cl)n2)cc1 | 8.21 | 7.80 | 8.85 | 6.79 | 6.66 | – | – | – |
| CON(C)c1nc(Cc2c(Cl)cccc2Cl)nc(Nc2ccc(C#N)cc2)n1 | – | – | 7.07 | – | – | – | – | – |
| CCONc1nc(Cc2c(Cl)cccc2Cl)nc(Nc2ccc(C#N)cc2)n1 | – | – | – | – | – | – | – | 7.61 |
| N#Cc1ccc(Nc2nc(N)nc(Oc3c(Cl)cccc3Cl)n2)cc1 | 6.55 | 7.09 | 8.51 | 5.34 | 6.42 | – | – | – |
| CC(=N)Nc1nc(Cc2c(Cl)cccc2Cl)nc(Nc2ccc(C#N)cc2)n1 | 6.68 | 7.40 | 8.57 | 6.45 | 6.21 | – | – | – |
| N#Cc1ccc(Nc2nc(N)nc(Cc3c(Cl)ccc(Cl)c3Cl)n2)cc1 | 6.54 | 7.20 | 8.52 | 6.58 | 6.38 | – | – | – |

| SMILES | pIC50 [1] | pIC50 [2] | pIC50 [3] | pIC50 [4] | pIC50 [6] | pIC50 (MT4 [5]) | pIC50 (MT4 [7]) | pIC50 (MT4 [8]) |
| --- | --- | --- | --- | --- | --- | --- | --- | --- |
| N#Cc1ccc(Nc2nc(Cc3c(Cl)cccc3Cl)nc(NN)n2)cc1 | 5.23 | 5.76 | 6.21 | 5.14 | 5.23 | – | – | – |
| N#Cc1ccc(Nc2nc(N)nc(Cc3c(Cl)cccc3Cl)n2)cc1 | 6.70 | 7.40 | 8.20 | 6.50 | 6.40 | – | – | – |
| N#Cc1ccc(Nc2nc(N)nc(Cc3ccccc3)n2)cc1 | < 4.00 | 5.07 | 6.55 | – | 5.09 | – | – | – |
| CCCNc1nc(Cc2c(Cl)cccc2Cl)nc(Nc2ccc(C#N)cc2)n1 | – | – | 6.07 | – | – | – | – | – |
| N#Cc1ccc(Nc2nc(F)nc(Cc3c(Cl)cccc3Cl)n2)cc1 | 4.00 | 4.28 | 5.28 | – | – | – | – | – |
| CN(C)c1nc(Cc2c(Cl)cccc2Cl)nc(Nc2ccc(C#N)cc2)n1 | 4.87 | 5.33 | 6.78 | – | 4.49 | – | – | – |
| COc1cccc(OC)c1Oc1nc(N)nc(Nc2ccc(C#N)cc2)n1 | 5.81 | 6.28 | 7.51 | – | – | – | – | – |
| N#Cc1ccc(Nc2nc(N)nc(Cc3ccccc3Cl)n2)cc1 | 5.59 | 6.40 | 6.89 | 5.13 | 5.58 | – | – | – |
| N#Cc1ccc(Nc2nc(Cl)nc(Cc3c(Cl)cccc3Cl)n2)cc1 | 5.00 | 5.00 | 5.97 | – | – | – | – | – |
| N#Cc1ccc(Nc2nc(Cc3c(Cl)cccc3Cl)nc(N=[N+]=[N-])n2)cc1 | 5.94 | 6.65 | 7.85 | – | – | – | – | – |
| CN(C)CCNc1nc(Cc2c(Cl)cccc2Cl)nc(Nc2ccc(C#N)cc2)n1 | 6.42 | 7.68 | 8.30 | 6.53 | 5.90 | – | – | – |
| CN(C)CCOc1nc(Cc2c(Cl)cccc2Cl)nc(Nc2ccc(C#N)cc2)n1 | 5.86 | 7.43 | 8.26 | 6.50 | 5.97 | – | – | – |
| CC(C)NC(=O)Nc1nc(Cc2c(Cl)cccc2Cl)nc(Nc2ccc(C#N)cc2)n1 | 4.36 | 5.12 | 6.42 | – | 4.45 | – | – | – |
| N#Cc1ccc(Nc2nc(Cc3c(Cl)cccc3Cl)nc(NO)n2)cc1 | 7.42 | 7.89 | 8.62 | 7.59 | 6.97 | – | – | – |
| CCOC(=O)Nc1nc(Cc2c(Cl)cccc2Cl)nc(Nc2ccc(C#N)cc2)n1 | 5.88 | 6.26 | 7.92 | 5.76 | 5.79 | – | – | – |
| C[S+]([O-])c1nc(Cc2c(Cl)cccc2Cl)nc(Nc2ccc(C#N)cc2)n1 (configuration not stated) | 4.16 | 4.81 | 5.81 | – | – | – | – | – |
| N#Cc1ccc(Nc2nc(Cc3c(Cl)cccc3Cl)nc(N3CCOCC3)n2)cc1 | – | – | 6.71 | – | – | – | – | – |
| N#Cc1ccc(Nc2nc(S)nc(Cc3c(Cl)cccc3Cl)n2)cc1 | 5.79 | 6.14 | 7.03 | – | – | – | – | – |

More lines, main results first:

| pIC50 [1] | pIC50 [2] | pIC50 [3] | pIC50 [4] | pIC50 [6] | SMILES | pIC50 (MT4 [5]) | pIC50 (MT4 [7]) | pIC50 (MT4 [8]) |
| --- | --- | --- | --- | --- | --- | --- | --- | --- |
| 7.80 | 8.22 | 9.22 | 7.20 | 7.10 | Cc1cc(Br)cc(C)c1Nc1ncnc(Nc2ccc(C#N)cc2)n1 | 6.90 | 5.50 | – |
| 7.21 | 7.77 | 8.27 | 6.21 | 6.88 | N#Cc1ccc(Nc2nc(N)nc(Oc3c(Br)cc(Br)cc3Br)n2)cc1 | – | – | – |
| < 4.00 | < 4.00 | 5.11 | – | – | Cc1cc(N)cc(C)c1Oc1nc(N)nc(Nc2ccc(C#N)cc2)n1 | – | – | – |
| 7.72 | 8.22 | 8.54 | 7.44 | 7.19 | Cc1cc(C)c(Sc2nc(N)nc(Nc3ccc(C#N)cc3)n2)c(C)c1 | – | – | – |
| 7.30 | 8.10 | 9.00 | 7.30 | 6.60 | Cc1cc(C#N)cc(C)c1Nc1ncnc(Nc2ccc(C#N)cc2)n1 | 6.90 | 5.60 | – |
| 7.20 | 7.09 | 8.21 | 6.09 | 5.86 | CONc1nc(Cc2c(Cl)cccc2Cl)nc(Nc2ccc(C#N)cc2)n1 | – | – | – |
| 7.24 | 8.10 | 8.70 | 6.91 | 6.48 | Cc1cc([N+](=O)[O-])cc(C)c1Oc1nc(N)nc(Nc2ccc(C#N)cc2)n1 | – | – | – |
| 7.40 | 8.22 | 8.89 | 6.40 | 7.80 | Cc1cc(Br)c(Oc2ncnc(Nc3ccc(C#N)cc3)n2)c(Br)c1 | – | – | – |
| 7.46 | 8.22 | 8.68 | 6.99 | 7.23 | Cc1cc(Br)cc(Cl)c1Oc1nc(N)nc(Nc2ccc(C#N)cc2)n1 | – | – | – |
| 7.89 | 8.52 | 8.70 | 7.70 | 7.49 | Cc1cc(C)c(Sc2ncnc(Nc3ccc(C#N)cc3)n2)c(C)c1 | – | < 5.00 | – |
| 5.80 | 6.56 | 8.51 | 5.99 | 5.23 | Cc1ccc(C)c(Cc2nc(N)nc(Nc3ccc(C#N)cc3)n2)c1 | – | – | – |
| 5.92 | 7.07 | 8.34 | 6.44 | 5.17 | Cc1cc(C)c(C)c(Cc2nc(N)nc(Nc3ccc(C#N)cc3)n2)c1C | – | – | – |
| 7.70 | 8.52 | 9.22 | 7.20 | 7.70 | Cc1cc(C)c(Oc2ncnc(Nc3ccc(C#N)cc3)n2)c(C)c1 | – | < 5.00 | – |
| 7.17 | 8.00 | 7.52 | 7.12 | 6.69 | Cc1cc(I)cc(C)c1Oc1nc(N)nc(Nc2ccc(C#N)cc2)n1 | – | – | – |
| 5.20 | 5.29 | 7.04 | < 4.00 | 4.11 | Cc1cc(C)cc(Cc2nc(N)nc(Nc3ccc(C#N)cc3)n2)c1 | – | – | – |
| 6.65 | 7.38 | 8.92 | 6.98 | 5.84 | Cc1cccc(C)c1Cc1nc(N)nc(Nc2ccc(C#N)cc2)n1 | – | – | – |
| 6.30 | 7.70 | 8.40 | 6.60 | 6.00 | Cc1cc(C#N)cc(C)c1Oc1ncnc(Nc2ccc(C#N)cc2)n1 | 6.40 | 5.40 | – |
